Structures are written as SMILES. Read-outs that look alike come from different tables or passages of the source. Where only a bound is given, the exact number is not on record here.

Test [1] addresses T1, human 5-HT1A serotonergic receptor (Homo sapiens, UniProt P08908).
T1 construct: expressed in transfected cells; host or cells: HeLa
T1 sequence (P08908 1-422): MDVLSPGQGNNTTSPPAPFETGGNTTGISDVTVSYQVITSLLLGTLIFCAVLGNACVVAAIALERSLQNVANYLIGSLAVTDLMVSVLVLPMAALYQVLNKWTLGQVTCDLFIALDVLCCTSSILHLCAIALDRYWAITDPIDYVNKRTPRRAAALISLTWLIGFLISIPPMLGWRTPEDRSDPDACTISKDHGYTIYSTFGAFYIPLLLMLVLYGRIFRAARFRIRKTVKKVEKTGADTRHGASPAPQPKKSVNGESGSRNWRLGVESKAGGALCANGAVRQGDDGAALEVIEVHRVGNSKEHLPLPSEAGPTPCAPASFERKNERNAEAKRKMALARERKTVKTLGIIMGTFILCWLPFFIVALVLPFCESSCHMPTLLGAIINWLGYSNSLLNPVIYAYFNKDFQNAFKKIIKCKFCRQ
Briefly: Radioreceptor binding, recombinant human 5-HT1A receptors ([3H]8-OH-DPAT, HeLa membranes). Conditions: recombinant human receptor, [3H]8-OH-DPAT; Ki from IC50 by Cheng & Prusoff; read-out: Binding affinity for the 5-HT1A receptor, Ki. On the procedure: Genomic clone G-21 coding for the human 5-HT1A serotonergic receptor is stably transfected in a human cell line (HeLa). HeLa cells were grown as monolayers in Dulbecco's modified Eagle's medium (DMEM), supplemented with 10% fetal calf serum and gentamicin ([…]), 5% CO2 at 37° C. Cells were detached from the growth flask at 95% confluence by a cell scraper and were lysed in ice-cold 5 mM Tris and 5 mM EDTA buffer (pH 7.4). Homogenates were centrifuged at 40000×g×20 min and pellets were resuspended in a small volume of ice-cold 5 mM Tris and 5 mM EDTA buffer (pH 7.4) and immediately frozen and stored at −70° C. until use. On the day of experiment, cell membranes were resuspended in binding buffer: 50 mM Tris HCl (pH 7.4), 2.5 mM MgCl2, 10 μM pargiline (Fargin et al., Nature 335, 358-360, 1988). Membranes were incubated in a final volume of 1 ml for 30 min at 30° C. with 0.2-1 nM [3H]8-OH-DPAT, in absence or presence of competing drugs; non-specific binding was determined in the presence of 10 μM 5-HT. The incubation was stopped by addition of ice-cold Tris-HCl buffer and rapid filtration through 0.2% polyethyleneimine pretreated Whatman GF/B or Schleicher & Schuell GF52 filters.
The inhibition of specific binding of the radioligands by the tested drugs was analyzed to estimate the IC50 value by using the non-linear curve-fitting program Allfit (De Lean et al., Am. J. Physiol. 235, E97-E102, 1978). The IC50 value was converted to an affinity constant (Ki) by the equation of Cheng & Prusoff (Cheng, Y. C.; Prusoff, W. H. Biochem. Pharmacol. 22, 3099-3108, 1973).

Test [2] deals with rhythmic bladder voiding contractions. Briefly: Volume-induced rhythmic bladder voiding contractions in anaesthetized rats. The format is in vivo, rat. As to conditions: for ED (10 min disappearance of contractions) / ED50: Rattus norvegicus; for ED (10 min disappearance of contractions): read-out: ED10 min; for pharmacological activity on bladder voiding contractions (in words): nitro group at position 3 or 4 of the aniline ring. As to the method:
Female Sprague Dawley rats weighing 225-275 g (Crl: CDo BR, Charles River Italia) were used. The animals were housed with free access to food and water and were maintained on a forced 12 h alternating light-dark cycle at 22-24° C. for at least one week, except during the experiment. The activity on the rhythmic bladder voiding contractions was evaluated according to the method of Dray (J. Pharmacol. Methods, 13:157, 1985), with some modifications as in Guarneri (Pharmacol. Res., 27:173, 1993). Briefly, rats were anesthetized by subcutaneous injection of 1.25 g/kg (5 ml/kg) urethane, after which the urinary bladder was catheterized via the urethra using PE 50 polyethylene tubing filled with physiological saline. The catheter was tied in place with a ligature around the external urethral orifice and was connected with conventional pressure transducers (Statham P23 ID/P23 XL). […] The bladder was then filled via the recording catheter by incremental volumes of warm (37° C.) saline until reflex bladder voiding contractions occurred (usually 0.8-1.5 ml). For intravenous (i.v.) injection of bioactive compounds, PE 50 polyethylene tubing filled with physiological saline was inserted into the jugular vein. From the cystometrogram, the number of contractions recorded 15 min before (basal values) and after treatment, as well as the mean amplitude of these contractions (mean height of the peaks in mmHg) was evaluated.
Since most compounds produced an effect that was relatively rapid in onset and led to a complete cessation of bladder contractions, bioactivity was conveniently estimated by measuring the duration of bladder quiescence (i.e., the duration of time during which no contractions occurred). The number of animals tested showing a reduction in the number of contractions >30% of that observed in the basal period was also recorded.
Also computed in this manner were extrapolated doses which induced a reduction of the number of contractions of greater than 30% in 50% of treated rats (ED50, frequency) by the method of Bliss (Bliss C. I., Quart. J. Pharm. Pharmacol. 11, 192-216, 1938). After the suppressive effects of drug injection wore off, the height of the contractile peaks was compared with the height of the peaks previously recorded after the control intravenous administration of vehicle. The potency of the tested compounds (ED50 value: the extrapolated doses inducing a 30% reduction of amplitude of the contractions in 50% of treated rats) was evaluated on a quantal basis by the method of Bliss (Bliss C. I., Quart. J. Pharm. Pharmacol. 11, 192-216, 1938).

The subject of the next test is urinary bladder. Briefly: Cystometric parameters (cystometrogram) in conscious rats. The class given is in vivo, rat. As to conditions: for BVC after treatment / MP after treatment: mean ± S.E.; for change in vivo at 0.3 mg/kg / change in vivo at 1 mg/kg / change in vivo at 0.1 mg/kg: Rattus norvegicus, iv, 0.25 h, after vs before; for change in vivo at 0.3 mg/kg: i.v. 300 μg/kg; for change in vivo at 1 mg/kg: i.v. 1000 μg/kg; for change in vivo at 0.1 mg/kg: i.v. 100 μg/kg. On the procedure:
Male Sprague Dawley rats (Crl: CDo BR) weighing 250-350 g were used. The animals were housed with free access to food and water and maintained on a forced 12 h alternating light-dark cycle at 22-24° C. for at least one week, except during performance of the experiment. To quantify urodynamic parameters in conscious rats, cystometrographic studies were performed using procedures previously described (Guarneri et al., Pharmacol. Res., 24:175, 1991). […] An approximately 10 mm long midline incision was made in the shaved and cleaned abdominal wall. The urinary bladder was gently freed from adhering tissues, emptied, and then cannulated, via an incision at the dome, with a polyethylene cannula (Portex PP30), which was permanently sutured with silk thread. The cannula was exteriorized through a subcutaneous tunnel in the retroscapular area, where it was connected with a plastic adapter to avoid the risk of removal by the animal. For intravenous (i.v.) injection of test compounds, a PE 50 polyethylene tubing filled with physiological saline was inserted into the jugular vein and exteriorized in the retroscapular area. The rats were utilized exclusively one day after implantation. On the day of the experiment, the rats were placed in Bollman's cages, after a stabilization period of 20 min, and the free tip of the bladder catheter was connected through a T-shaped tube to a pressure transducer (Bentley T 800/Marb P 82) and to a peristaltic pump (Gilson minipuls 2) for a continuous infusion, at the constant rate of 0.1 ml/min, of saline solution into the urinary bladder. The intraluminal pressure signal during infusion was continuously recorded on a polygraph (Battaglia Rangoni KO 380 with ADCl/T amplifier).
Two urodynamic parameters were evaluated: bladder volume capacity (BVC) and micturition pressure (MP). BVC (in ml) is defined as the minimum volume infused after which detrusor contraction (followed by micturition) occurs. MP (in mm Hg) is defined as the maximal intravesical pressure induced by the contraction of detrusor during micturition. Basal BVC and MP values were calculated as the means of the first two recorded cystometrograms. At this point in the assay, the infusion was interrupted and the test compounds were administered. Fifteen minutes after intravenous administration two additional cystometrograms were recorded in each animal and the mean values of the two cystometrographic parameters were calculated. The statistical significance of the differences in urodynamic parameter values was evaluated by Student's t test for paired data.

[3] abbreviates: extrapolated dose inducing 10 min of disappearance of the contractions, intravenous, anaesthetized rats.
Where [4] appears, read: extrapolated dose inducing a reduction of the number of contractions >30% in 50% of treated rats, intravenous, read-out: ED50 (frequency).

What is called Ki is the equilibrium dissociation constant of an inhibitor or competing ligand from its target. Usually ED50 stands for the midpoint of the dose-response relation. On to `COc1cc(N)ccc1N1CCN(CCN(C(=O)C2CCCCC2)c2ccccc2OC(F)(F)F)CC1` [Example 56, 1-[N-cyclohexylcarbonyl-N-(2-trifluoromethoxyphenyl)-2-aminoethyl]-4-(4-amino-2-methoxyphenyl)piperazine], for which, in test [1], the Ki was found to be 2.13 nM. Besides, the ED (10 min disappearance of contractions) in test [2] (setting [3]) is 0.061 mg/kg. Further, the ED50 in test [2] (setting [4]) is 0.021 mg/kg.
In the test with urinary bladder (15 min after i.v. 300 μg/kg), `COc1ccccc1N1CCN(CCN(C(=O)C2CCCCC2)c2ccccc2OCC(F)(F)F)CC1` [Example 42, 1-[N-[2-(2,2,2-trifluoroethoxy)phenyl]-N-cyclohexylcarbonyl-2-aminoethyl]-4-(2-methoxyphenyl)piperazine] registered a BVC after treatment of 0.89 ± 0.15 mL and an MP after treatment of 66.5 ± 9.9 mmHg. In the test with urinary bladder (15 min after i.v. 1000 μg/kg), this molecule had a BVC after treatment of 1.00 ± 0.16 mL and an MP after treatment of 70.3 ± 7.8 mmHg. Besides, in the test with urinary bladder (read-out: BVC % of change), the change in vivo at 0.3 mg/kg was found to be 26.4% and the change in vivo at 1 mg/kg was 41.7%. For the same molecule, in the test with urinary bladder (read-out: MP % of change), the change in vivo at 0.3 mg/kg is -20% and the change in vivo at 1 mg/kg was -9.2%. In test [2] (setting [3]), the ED (10 min disappearance of contractions) was 0.033 mg/kg. Besides, in test [2] (setting [4]), the ED50 is 0.018 mg/kg.
For the molecule `CCN(CC)CC#CCOC(=O)C(O)(c1ccccc1)C1CCCCC1` (stereo not shown) [Oxybutinin, oxybutynin, reference compound], the BVC after treatment in the test with urinary bladder (15 min after i.v. 100 μg/kg) was found to be 0.89 ± 0.18 mL; in the test on urinary bladder (15 min after i.v. 300 μg/kg) it was 0.83 ± 0.12 mL; with urinary bladder (15 min after i.v. 1000 μg/kg), 1.00 ± 0.18 mL. Moreover, the MP after treatment in the test with urinary bladder (15 min after i.v. 100 μg/kg) came out at 77.4 ± 10.3 mmHg; in the test on urinary bladder (15 min after i.v. 300 μg/kg), 50.5 ± 6.3 mmHg. For the same molecule, the figures for the change in vivo at 0.1 mg/kg in the test on urinary bladder (read-out: BVC % of change) and in the test on urinary bladder (read-out: MP % of change) were 8.5% and -18.7%, respectively. Moreover, the change in vivo at 0.3 mg/kg in the test with urinary bladder (read-out: MP % of change) is -38.6%. For the same molecule, in the test on urinary bladder (conscious rats, i.v.), the “effect on MP (in words)” value was “markedly and dose-dependently decreased MP”. The ED (10 min disappearance of contractions) in test [2] (setting [3]) was 7.77 mg/kg. The 50% effective dose (ED50) in test [2] (extrapolated dose inducing 30% reduction of amplitude of the contractions in 50% of treated rats, intravenous, n.a. = not active, no significant reduction of the height of peaks, read-out: ED50 (amplitude)) was 0.24 mg/kg; in test [2] (setting [4]), greater than 10 mg/kg.
For the molecule `Cc1c(-c2ccccc2)oc2c(C(=O)OCCN3CCCCC3)cccc2c1=O` [Flavoxate, flavoxate, reference compound], in the test with urinary bladder (15 min after i.v. 300 μg/kg), the BVC after treatment was 0.87 ± 0.11 mL and the MP after treatment turned out to be 95.0 ± 10.9 mmHg. In the test with urinary bladder (15 min after i.v. 1000 μg/kg), the BVC after treatment is 1.11 ± 0.16 mL and the MP after treatment came to 80.1 ± 11.1 mmHg. In the test with urinary bladder (read-out: BVC % of change), the change in vivo at 0.3 mg/kg was 14.5% and the change in vivo at 1 mg/kg turned out to be 26.1%. In addition, in the test on urinary bladder (read-out: MP % of change), the change in vivo at 0.3 mg/kg is 6.5% and the change in vivo at 1 mg/kg is -11.4%. Further, the “i.v. dose at which a significant increase in BVC was observed” value in the test on urinary bladder (conscious rats, i.v.) amounted to 1.0 mg/kg. For the same molecule, the ED (10 min disappearance of contractions) in test [2] (setting [3]) is greater than 10 mg/kg.
For the molecule `COc1ccccc1N1CCN(CCN(C(=O)C2CCCCC2)c2cccc([N+](=O)[O-])c2)CC1` [Compound B, 1-[N-(3-nitrophenyl)-N-cyclohexylcarbonyl-2-aminoethyl]-4-(2-methoxypheny)piperazine, reference compound], in test [2] (setting [3]), the ED10 min is greater than 1000 µg/kg. The “ED50 (frequency)” value in test [2] (extrapolated dose inducing a reduction of the number of contractions >30% in 50% of treated rats, intravenous) was greater than 1000 µg/kg. Also, the “pharmacological activity on bladder voiding contractions (in words)” value in test [2] is “pharmacological activity was abolished”.
Consider `COc1ccccc1N1CCN(CCN(C(=O)C2CCCCC2)c2ccc([N+](=O)[O-])cc2)CC1` [Compound C, 1-[N-(4-nitrophenyl)-N-cyclohexylcarbonyl-2-aminoethyl]-4-(2-methoxyphenyl)piperazine, reference compound], for which, in test [2] (setting [3]), the ED (10 min disappearance of contractions) was greater than 1 mg/kg. Moreover, the ED50 in test [2] (setting [4]) is greater than 1 mg/kg. Also, the “pharmacological activity on bladder voiding contractions (in words)” value in test [2] is listed as “pharmacological activity was abolished”.
Turning to `COc1ccccc1N1CCN(CCNc2ccccc2)CC1` [Compound AA, 1-(N-phenyl-2-aminoethyl)-4-(2-methoxyphenyl)piperazine, reference compound], the ED (10 min disappearance of contractions) in test [2] (setting [3]) was 0.663 mg/kg. For the same molecule, in test [2] (setting [4]), the ED50 is 0.244 mg/kg.

The values are drawn from US6399614B1, “1-(N-phenylaminoalkyl)piperazine derivatives substituted at position 2 of the phenyl ring” (Recordati S.A. Chemical and Pharmaceutical Company, priority 1997, dated 2002).
